Results reported in patent US5091539A, “Azolyl cycloalkanol derivatives and agricultural fungicides” (Shionogi & Co., Ltd., priority 1984, dated 1992).

How the values were obtained:
Format in all cases: in vivo
Puccinia coronata = test: Control test of crown rust of oat; details: 125 ppm
Procedure: (1) Young oats (Cultivar: Pc38) grown in pots in a greenhouse were (i) sprayed with 10 ml each of solution of the test compounds at a prescribed concentration and after air-drying, they were inoculated with 15 mg of uredospores of Puccinia coronata per 20 pots (protective spraying) or (ii) sprayed with the test solution 3 days after inoculation of uredospores. After each plant was kept at 20°-25° C. in a greenhouse for 2 weeks, number of uredia was counted on the first leaf.

Sphaerotheca fuliginea [1] = test: Control test to powdery mildew of cucumber (foliar and soil treatment); details: for Foliar Treatment, Curative Effect / Foliar Treatment, Protective Effect / Soil Treatment, Protective Effect / Powdery mildew, Foliar Treatment, Curative Effect / Powdery mildew, Foliar Treatment, Protective Effect / Powdery mildew, Soil Treatment, Protective Effect: index 0-10; for Protective Index, Foliar Treatment / Protective Index, Soil Treatment: first Table 4, 125 ppm, 14 days
Procedure: (1) Seeds of cucumber (Cultivar: Matsukaze) were sown in a pot of 9 cm in diameter and the pots were kept in a green house until the plant was grown for 2-3 leaf stage. The first leaf was sprayed with, (i) 3 ml each of solutions containing the test compound at the prescribed concetrations and dried by the air (foliar treatment). Inoculation of spore suspension of Sphaerotheca fuliginea by spraying was practised 2 days before the treatment (curative effect) or 1 day after the treatment (protective effect). Alternatively, (ii) 5 ml of the solution was applied at the root of the seedlings (soil treatment). The pots were kept in a greenhouse for 2 days and inoculation was practised in the same manner noted above. (iii) After sprayed with 3 ml of a solution of the test compound at a concentration of 125 ppm and dried by the air, the treated pots were set in a greenhouse. Untreated pots were placed next to the treated pots. Those treated and untreated plants were inoculated with spore suspension. Protective effect of the test compounds by vapor was thus checked. The effect was examined 14 days after the inoculation of the spores.
0: Disease sign is observed on the whole leaf.
3: Disease sign is observed on the leaf in about 50%.
5: Disease sign is observed on the leaf in about 30%.
7: Disease sign is observed on the leaf in about 20%.
9: a little disease sign is observed.
(§1) (1) Test methods and evaluation are the same as those in Tests 2, 4 and 6.

Sphaerotheca fuliginea [2] = test: Control test to powdery mildew of cucumber by vapor (filter paper disks)
Procedure: (1) The first leaves of young cucumber (Cultivar: Matsukaze) planted in pot of 9 cm in diameter were inoculated with spore suspension of Sphaerotheca fuliginea. After the plants were kept in a greenhouse for 2 days, thin cover plates, 15 mm in diameter, were put on the first leaves. Filter paper disks soaked with 80 μl of test solution at a concentration of 31.3, 7.8, 2.0 or 0.5 ppm were put on the plates for 3 days. Disease degrees were observed 14 days after the inoculation.
It is evaluated as + when an inhibition zone was observed around the plate, as ± when the inhibition zone has nearly the same diameter (8 mm) as that of plate or as - when there is no inhibition zone.
as §1

Sclerotinia sclerotiorum = test: Control test to Sclerotinia rot of cucumber
Excerpt: (1) This test was practised in the same manner as in the above test, control test of Botrytis rot (gray mold) of cucumber, except for using the mycelium of Sclerotinia sclerotiorum as inoculm. The same as in test 2.

Botrytis cinerea = test: Control test of Botrytis rot (gray mold) of cucumber
Procedure: (1) Seedlings of cucumber (Cultivar: Matsukaze) were planted in a pot of 9 cm in diameter. The first leaf was sprayed with 3 ml each of solutions containing the test compound at the concentration of 125 or 31.3 ppm and the plant was dried by the air. After inoculation of the spores of Botrytis cinerea, the plants were kept at 20°±2° C. and 90-100% humidity ((i) protective spraying). Alternatively, the spores were inoculated at first and when the leaves suffered a little (about 2 days after), the solutions of the test compounds were sprayed ((ii) curative spraying). Evaluation was practised 3 days after the inoculation. Percent disease control was calculated by the ratio of diameter of diseased area in treated and untreated plants.
as §1

Fusarium oxysporum = test: Control test to damping-off of cucumber (Fusarium oxysporum); details: soil drench, 14 days
Procedure: (§2) (1) The fungus causing damping-off of cucumber seedlings, Rhizoctonia solani or Fusarium oxysporum was cultured on a wheat bran medium at 28° C. for 5 days, which was mixed with sterilized soil and cultured for 2 days to prepare the inoculum. Sterilized soil (150 g) was put into a pot of 9 cm in diameter. The surface of the spot was covered with the above inoculum. […] Twenty cucumber seeds (Cultivar: Matsukaze) were sown 2 days after. The pots were kept at 30°±2° C. for 14 days. The infection was observed 14 days after and disease degree and percent disease degree were obtained by setting an evaluation index for each disease sympton.
(§3) (2) Evaluation [formula] wherein a: number of seeds without germination b: number of seedlings showing damping-off c: number of wilted seedlings d: number of seedlings being a little brownish in cotyledons or at the bottom of the stem e: number of uninfected seedlings [formula] wherein a: number of seeds without germination or seedlings with damping-off b: number of wilted seedlings c: number of seedlings being a little brownish in cotyledons or at the bottom of the stem d: number of uninfected seedlings [formula]

Rhizoctonia solani = test: Control test to damping-off of cucumber (Rhizoctonia solani); details: soil drench, 14 days
Procedure: as §2, §3

`CC(C)(C)C(=O)C(Oc1ccc(Cl)cc1)n1cncn1` (stereo not shown) [Triadimefon, reference compound] was tested, and the “Percent Disease Control, Curative Spraying” value (Puccinia coronata) was 100%, the “Percent Disease Control, Protective Spraying” value (Puccinia coronata) was 100% and the “Foliar Treatment, Curative Effect” value (Sphaerotheca fuliginea [1]; second Table 4, 0.5 ppm) was 0. For the same compound, the “Foliar Treatment, Protective Effect” value (Sphaerotheca fuliginea [1]; second Table 4, 0.5 ppm) was 0, the “Soil Treatment, Protective Effect” value (Sphaerotheca fuliginea [1]; second Table 4, 0.5 ppm) was 0 and the “Foliar Treatment, Curative Effect” value (Sphaerotheca fuliginea [1]; second Table 4, 2.0 ppm) was 9. For the same compound, the “Foliar Treatment, Protective Effect” value (Sphaerotheca fuliginea [1]; second Table 4, 2.0 ppm) was 7 (Disease sign is observed on the leaf in about 20%.), the “Soil Treatment, Protective Effect” value (Sphaerotheca fuliginea [1]; second Table 4, 2.0 ppm) was 0 and the “Foliar Treatment, Curative Effect” value (Sphaerotheca fuliginea [1]; second Table 4, 7.8 ppm) was 10. For the same compound, the “Foliar Treatment, Protective Effect” value (Sphaerotheca fuliginea [1]; second Table 4, 7.8 ppm) was 9, the “Soil Treatment, Protective Effect” value (Sphaerotheca fuliginea [1]; second Table 4, 7.8 ppm) was 3 (Disease sign is observed on the leaf in about 50%.) and the “Foliar Treatment, Curative Effect” value (Sphaerotheca fuliginea [1]; second Table 4, 31.3 ppm) was 10. For the same compound, the “Foliar Treatment, Protective Effect” value (Sphaerotheca fuliginea [1]; second Table 4, 31.3 ppm) was 10, the “Soil Treatment, Protective Effect” value (Sphaerotheca fuliginea [1]; second Table 4, 31.3 ppm) was 10 and the “Protective Effect by Vapor” value (Sphaerotheca fuliginea [2]; Table 6, 0.5 ppm) was “-”. For the same compound, the “Protective Effect by Vapor” value (Sphaerotheca fuliginea [2]; Table 6, 2.0 ppm) was “-”, the “Protective Effect by Vapor” value (Sphaerotheca fuliginea [2]; Table 6, 7.8 ppm) was “-” and the “Protective Effect by Vapor” value (Sphaerotheca fuliginea [2]; Table 6, 31.3 ppm) was “-”.

With `O[C@@]1(c2ccc(Cl)s2)CCCCC[C@H]1n1cncn1` (relative stereo) [Compound 13, cis-1-(5-chloro-2-thienyl)-2-(1,2,4-triazol-1-yl)cycloheptanol] the “Percent Disease Control, Curative Spraying” value (Sclerotinia sclerotiorum; 125 ppm) was 95%, the “Percent Disease Control, Protective Spraying” value (Sclerotinia sclerotiorum; 125 ppm) was 100% and the “Percent Disease Control, Curative Spraying” value (Botrytis cinerea; Table 2, 125 ppm) was 94%. The “Percent Disease Control, Protective Spraying” value (Botrytis cinerea; Table 2, 125 ppm) was 100%, the “Disease Degree” value (Fusarium oxysporum; 500 ppm) was 100 and the “Percent Disease Control” value (Fusarium oxysporum; 500 ppm) was 0%. The “Protective Index, Foliar Treatment” value (Sphaerotheca fuliginea [1]) was 10, the “Protective Index, Soil Treatment” value (Sphaerotheca fuliginea [1]) was 10 and the “Disease Degree” value (Rhizoctonia solani; 500 ppm) was 5. The “Percent Disease Control” value (Rhizoctonia solani; 500 ppm) was 95%.

In the case of `O=C1C2CC=CCC2C(=O)N1SC(Cl)(Cl)Cl` (stereo not shown) [Captan, reference compound], the “Disease Degree” value (Fusarium oxysporum; 800 ppm) is reported as 0 and the “Percent Disease Control” value (Fusarium oxysporum; 800 ppm) is reported as 100%.

In the case of `O[C@]1(c2ccc(Cl)cc2)CCCC[C@H]1n1cncn1` (relative stereo) [Trans-isomer of Compound 22, 1-(4-chlorophenyl)-2-(1,2,4-triazol-1-yl)cyclohexanol, reference compound], the “Gray Mold, Percent Disease Control, Curative Spraying” value (Botrytis cinerea; Table 9, 7.8 ppm) is reported as 0%, the “Gray Mold, Percent Disease Control, Protective Spraying” value (Botrytis cinerea; Table 9, 7.8 ppm) is reported as 0% and the “Gray Mold, Percent Disease Control, Curative Spraying” value (Botrytis cinerea; Table 9, 31.3 ppm) is reported as 0%. The “Gray Mold, Percent Disease Control, Protective Spraying” value (Botrytis cinerea; Table 9, 31.3 ppm) was 3%, the “Gray Mold, Percent Disease Control, Curative Spraying” value (Botrytis cinerea; Table 9, 125 ppm) was 2% and the “Gray Mold, Percent Disease Control, Protective Spraying” value (Botrytis cinerea; Table 9, 125 ppm) was 3%. The “Powdery mildew, Foliar Treatment, Curative Effect” value (“Powdery mildew … Curative Effect” for short) (Sphaerotheca fuliginea [1]; Table 9, 0.03 ppm) was 0, the “Powdery mildew, Foliar Treatment, Protective Effect” value (Sphaerotheca fuliginea [1]; Table 9, 0.03 ppm) was 0 and the “Powdery mildew … Curative Effect” value (Sphaerotheca fuliginea [1]; Table 9, 0.12 ppm) was 0. The “Powdery mildew, Foliar Treatment, Protective Effect” value (Sphaerotheca fuliginea [1]; Table 9, 0.12 ppm) was 0, the “Powdery mildew … Curative Effect” value (Sphaerotheca fuliginea [1]; Table 9, 0.5 ppm) was 5 (Disease sign is observed on the leaf in about 30%.) and the “Powdery mildew, Foliar Treatment, Protective Effect” value (Sphaerotheca fuliginea [1]; Table 9, 0.5 ppm) was 3 (Disease sign is observed on the leaf in about 50%.). For the same compound, the “Powdery mildew, Soil Treatment, Protective Effect” value (“Powdery mildew, Soil Treatment” for short) (Sphaerotheca fuliginea [1]; Table 9, 0.5 ppm) was 0, the “Powdery mildew … Curative Effect” value (Sphaerotheca fuliginea [1]; Table 9, 2.0 ppm) was 9 and the “Powdery mildew, Foliar Treatment, Protective Effect” value (Sphaerotheca fuliginea [1]; Table 9, 2.0 ppm) was 10. For the same compound, the “Powdery mildew, Soil Treatment” value (Sphaerotheca fuliginea [1]; Table 9, 2.0 ppm) was 0, the “Powdery mildew, Soil Treatment” value (Sphaerotheca fuliginea [1]; Table 9, 7.8 ppm) was 0 and the “Powdery mildew, Soil Treatment” value (Sphaerotheca fuliginea [1]; Table 9, 31.3 ppm) was 5 (Disease sign is observed on the leaf in about 30%.). The “Powdery mildew, Vapor Effect” value (Sphaerotheca fuliginea [2]; Table 9, 2.0 ppm) was “-”, the “Powdery mildew, Vapor Effect” value (Sphaerotheca fuliginea [2]; Table 9, 7.8 ppm) was “-” and the “Powdery mildew, Vapor Effect” value (Sphaerotheca fuliginea [2]; Table 9, 31.3 ppm) was “-”.

In the case of `O[C@@]1(c2ccc(F)cc2)CCCCC[C@H]1n1cncn1` (relative stereo) [Compound 30], the “Percent Disease Control, Curative Spraying” value (Sclerotinia sclerotiorum; 31.3 ppm) is reported as 94%, the “Percent Disease Control, Protective Spraying” value (Sclerotinia sclerotiorum; 31.3 ppm) is reported as 89% and the “Percent Disease Control, Curative Spraying” value (Sclerotinia sclerotiorum; 125 ppm) is reported as 96%. For the same compound, the “Percent Disease Control, Protective Spraying” value (Sclerotinia sclerotiorum; 125 ppm) was 100%, the “Percent Disease Control, Curative Spraying” value (Botrytis cinerea; Table 2, 31.3 ppm) was 86% and the “Percent Disease Control, Protective Spraying” value (Botrytis cinerea; Table 2, 31.3 ppm) was 89%. For the same compound, the “Percent Disease Control, Curative Spraying” value (Botrytis cinerea; Table 2, 125 ppm) was 94%, the “Percent Disease Control, Protective Spraying” value (Botrytis cinerea; Table 2, 125 ppm) was 100% and the “Foliar Treatment, Curative Effect” value (Sphaerotheca fuliginea [1]; second Table 4, 0.5 ppm) was 7 (Disease sign is observed on the leaf in about 20%.). The “Foliar Treatment, Protective Effect” value (Sphaerotheca fuliginea [1]; second Table 4, 0.5 ppm) was 0, the “Soil Treatment, Protective Effect” value (Sphaerotheca fuliginea [1]; second Table 4, 0.5 ppm) was 0 and the “Foliar Treatment, Curative Effect” value (Sphaerotheca fuliginea [1]; second Table 4, 2.0 ppm) was 10. For the same compound, the “Foliar Treatment, Protective Effect” value (Sphaerotheca fuliginea [1]; second Table 4, 2.0 ppm) was 9, the “Soil Treatment, Protective Effect” value (Sphaerotheca fuliginea [1]; second Table 4, 2.0 ppm) was 0 and the “Foliar Treatment, Curative Effect” value (Sphaerotheca fuliginea [1]; second Table 4, 7.8 ppm) was 10. The “Foliar Treatment, Protective Effect” value (Sphaerotheca fuliginea [1]; second Table 4, 7.8 ppm) was 10, the “Soil Treatment, Protective Effect” value (Sphaerotheca fuliginea [1]; second Table 4, 7.8 ppm) was 10 and the “Foliar Treatment, Curative Effect” value (Sphaerotheca fuliginea [1]; second Table 4, 31.3 ppm) was 10. For the same compound, the “Foliar Treatment, Protective Effect” value (Sphaerotheca fuliginea [1]; second Table 4, 31.3 ppm) was 10, the “Soil Treatment, Protective Effect” value (Sphaerotheca fuliginea [1]; second Table 4, 31.3 ppm) was 10 and the “Disease Degree” value (Rhizoctonia solani; 31.3 ppm) was 18. The “Percent Disease Control” value (Rhizoctonia solani; 31.3 ppm) was 82%, the “Protective Effect by Vapor” value (Sphaerotheca fuliginea [2]; Table 6, 0.5 ppm) was “-” and the “Protective Effect by Vapor” value (Sphaerotheca fuliginea [2]; Table 6, 2.0 ppm) was “-”. The “Protective Effect by Vapor” value (Sphaerotheca fuliginea [2]; Table 6, 7.8 ppm) was “+” and the “Protective Effect by Vapor” value (Sphaerotheca fuliginea [2]; Table 6, 31.3 ppm) was “+”.

For `O[C@@]1(c2cccc3ccccc23)CCCC[C@H]1n1cncn1` (relative stereo) [Compound 1, cis-1-(1-naphthyl)-2-(1,2,4-triazol-1-yl)/cyclohexanol], the “Percent Disease Control, Curative Spraying” value (Puccinia coronata) was 100%, the “Percent Disease Control, Protective Spraying” value (Puccinia coronata) was 100% and the “Protective Index, Foliar Treatment” value (Sphaerotheca fuliginea [1]) was 10. The “Protective Index, Soil Treatment” value (Sphaerotheca fuliginea [1]) was 5 (Disease sign is observed on the leaf in about 30%.).

`Cc1ccccc1C(=O)Nc1cccc(OC(C)C)c1` [Mepronil, reference compound] was tested, and the “Disease Degree” value (Rhizoctonia solani; 47 ppm) was 77, the “Percent Disease Control” value (Rhizoctonia solani; 47 ppm) was 23% and the “Disease Degree” value (Rhizoctonia solani; 750 ppm) was 5. The “Percent Disease Control” value (Rhizoctonia solani; 750 ppm) was 95%.
